In ChEMBL document CHEMBL4507276 (2021):

Experiments:
[1] = target: Protein kinase C theta type (Homo sapiens) (UniProt Q04759); details: Compound concentration 1000.0 nM
[2] = target: T1, Tyrosine-protein kinase Mer (Homo sapiens) (UniProt Q12866); test: MERTK Invitrogen selectivity data (BI); details: Compound concentration 3.0 uM
T1 sequence (whole entry): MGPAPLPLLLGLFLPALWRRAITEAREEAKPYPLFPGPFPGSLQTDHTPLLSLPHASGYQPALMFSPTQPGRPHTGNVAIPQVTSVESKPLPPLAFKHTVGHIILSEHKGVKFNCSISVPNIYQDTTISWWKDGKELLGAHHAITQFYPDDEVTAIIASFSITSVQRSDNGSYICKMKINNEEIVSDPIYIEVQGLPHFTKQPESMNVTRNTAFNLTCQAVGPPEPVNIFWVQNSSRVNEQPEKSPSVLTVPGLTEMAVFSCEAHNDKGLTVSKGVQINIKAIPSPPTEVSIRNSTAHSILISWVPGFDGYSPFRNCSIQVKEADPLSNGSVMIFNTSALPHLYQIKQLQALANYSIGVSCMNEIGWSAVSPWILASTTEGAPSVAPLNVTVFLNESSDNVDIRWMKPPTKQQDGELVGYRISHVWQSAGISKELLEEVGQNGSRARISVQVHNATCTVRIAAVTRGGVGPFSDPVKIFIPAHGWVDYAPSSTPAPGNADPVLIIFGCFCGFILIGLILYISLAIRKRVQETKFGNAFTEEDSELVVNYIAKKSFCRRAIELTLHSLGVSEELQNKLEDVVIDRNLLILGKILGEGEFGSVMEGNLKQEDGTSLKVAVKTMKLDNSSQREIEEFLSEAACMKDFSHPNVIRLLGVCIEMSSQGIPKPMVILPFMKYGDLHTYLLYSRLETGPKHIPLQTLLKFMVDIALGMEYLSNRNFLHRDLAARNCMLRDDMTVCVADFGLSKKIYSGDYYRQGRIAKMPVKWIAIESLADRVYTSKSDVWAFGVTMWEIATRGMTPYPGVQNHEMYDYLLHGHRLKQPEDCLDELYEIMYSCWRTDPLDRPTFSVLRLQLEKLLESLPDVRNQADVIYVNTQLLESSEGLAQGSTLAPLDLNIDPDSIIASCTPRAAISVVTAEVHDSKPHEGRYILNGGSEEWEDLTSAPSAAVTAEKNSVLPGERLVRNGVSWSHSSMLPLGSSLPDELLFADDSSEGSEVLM

[3] = target: Serine/threonine-protein kinase MRCK beta (Homo sapiens) (UniProt Q9Y5S2); test: CDC42 BPB Invitrogen selectivity data (BI); details: Compound concentration 3.0 uM
Sequence of Serine/threonine-protein kinase MRCK beta (Homo sapiens) (Q9Y5S2 whole entry): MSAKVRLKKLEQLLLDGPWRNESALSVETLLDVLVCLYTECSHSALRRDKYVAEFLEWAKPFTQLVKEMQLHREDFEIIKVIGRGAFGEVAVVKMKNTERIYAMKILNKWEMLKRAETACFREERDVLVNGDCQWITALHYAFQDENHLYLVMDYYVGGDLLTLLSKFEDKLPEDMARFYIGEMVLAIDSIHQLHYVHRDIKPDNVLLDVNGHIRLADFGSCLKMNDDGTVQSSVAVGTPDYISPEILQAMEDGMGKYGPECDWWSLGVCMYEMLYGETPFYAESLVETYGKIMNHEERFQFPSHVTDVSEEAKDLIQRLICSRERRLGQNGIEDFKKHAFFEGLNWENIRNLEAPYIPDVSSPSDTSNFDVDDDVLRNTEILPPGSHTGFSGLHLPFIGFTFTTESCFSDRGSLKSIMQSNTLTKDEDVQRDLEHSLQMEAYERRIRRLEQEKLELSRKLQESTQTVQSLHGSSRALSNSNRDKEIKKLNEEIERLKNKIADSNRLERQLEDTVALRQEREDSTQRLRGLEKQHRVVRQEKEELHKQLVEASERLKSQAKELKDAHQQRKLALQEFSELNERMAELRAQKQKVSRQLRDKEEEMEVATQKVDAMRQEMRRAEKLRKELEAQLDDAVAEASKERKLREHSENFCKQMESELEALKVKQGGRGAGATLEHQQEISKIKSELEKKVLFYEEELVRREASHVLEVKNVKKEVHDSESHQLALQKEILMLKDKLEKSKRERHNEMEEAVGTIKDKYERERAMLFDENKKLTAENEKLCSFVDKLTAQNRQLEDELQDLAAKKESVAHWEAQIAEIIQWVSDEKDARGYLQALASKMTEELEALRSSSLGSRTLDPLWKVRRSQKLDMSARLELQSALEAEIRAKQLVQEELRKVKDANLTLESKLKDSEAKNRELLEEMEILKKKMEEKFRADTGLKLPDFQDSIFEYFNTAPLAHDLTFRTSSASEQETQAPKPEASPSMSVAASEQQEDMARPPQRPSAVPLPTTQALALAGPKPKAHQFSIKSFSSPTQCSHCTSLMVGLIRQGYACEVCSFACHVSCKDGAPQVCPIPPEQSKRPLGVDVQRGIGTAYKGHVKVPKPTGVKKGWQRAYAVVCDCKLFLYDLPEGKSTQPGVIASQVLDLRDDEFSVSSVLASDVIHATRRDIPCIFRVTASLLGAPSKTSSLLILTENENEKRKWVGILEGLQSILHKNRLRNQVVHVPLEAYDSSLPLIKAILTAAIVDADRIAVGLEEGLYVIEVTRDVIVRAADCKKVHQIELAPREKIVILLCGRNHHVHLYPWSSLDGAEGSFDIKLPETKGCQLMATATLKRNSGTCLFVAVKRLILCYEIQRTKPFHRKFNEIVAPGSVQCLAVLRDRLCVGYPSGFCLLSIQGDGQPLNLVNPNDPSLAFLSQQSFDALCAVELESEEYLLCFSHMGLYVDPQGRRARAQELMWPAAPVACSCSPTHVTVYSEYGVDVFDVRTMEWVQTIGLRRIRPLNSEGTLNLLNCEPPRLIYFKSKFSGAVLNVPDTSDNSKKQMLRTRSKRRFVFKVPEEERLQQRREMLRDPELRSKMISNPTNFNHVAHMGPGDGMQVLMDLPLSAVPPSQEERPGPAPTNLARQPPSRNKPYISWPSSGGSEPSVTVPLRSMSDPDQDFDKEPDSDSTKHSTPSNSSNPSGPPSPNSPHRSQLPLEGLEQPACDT

[4] = target: Interleukin-1 receptor type 1 (Mus musculus) (UniProt P13504); test: IL-1 Eurofins-Panlabs selectivity data (BI); details: Compound concentration 10.0 uM
Sequence of Interleukin-1 receptor type 1 (Mus musculus) (P13504 whole entry): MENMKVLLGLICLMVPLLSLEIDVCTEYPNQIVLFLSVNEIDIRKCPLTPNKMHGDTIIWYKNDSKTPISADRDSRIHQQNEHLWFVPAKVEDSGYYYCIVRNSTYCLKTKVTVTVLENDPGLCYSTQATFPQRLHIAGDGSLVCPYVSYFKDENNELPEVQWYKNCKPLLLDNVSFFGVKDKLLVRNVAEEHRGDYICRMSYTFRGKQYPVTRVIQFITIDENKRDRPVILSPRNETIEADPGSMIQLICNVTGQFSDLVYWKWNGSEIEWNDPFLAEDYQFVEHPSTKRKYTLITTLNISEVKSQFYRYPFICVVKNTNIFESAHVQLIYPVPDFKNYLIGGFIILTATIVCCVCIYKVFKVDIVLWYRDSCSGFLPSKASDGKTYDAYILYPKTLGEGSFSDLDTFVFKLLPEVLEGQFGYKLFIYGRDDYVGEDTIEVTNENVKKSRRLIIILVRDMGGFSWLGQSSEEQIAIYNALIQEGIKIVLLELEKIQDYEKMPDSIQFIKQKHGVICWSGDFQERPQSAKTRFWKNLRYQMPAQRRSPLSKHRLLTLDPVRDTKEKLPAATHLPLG

[5] = target: T2, Serine/threonine-protein kinase NLK (Homo sapiens) (UniProt Q9UBE8); test: NLK Invitrogen selectivity data (BI); details: Compound concentration 3.0 uM
T2 sequence (whole entry): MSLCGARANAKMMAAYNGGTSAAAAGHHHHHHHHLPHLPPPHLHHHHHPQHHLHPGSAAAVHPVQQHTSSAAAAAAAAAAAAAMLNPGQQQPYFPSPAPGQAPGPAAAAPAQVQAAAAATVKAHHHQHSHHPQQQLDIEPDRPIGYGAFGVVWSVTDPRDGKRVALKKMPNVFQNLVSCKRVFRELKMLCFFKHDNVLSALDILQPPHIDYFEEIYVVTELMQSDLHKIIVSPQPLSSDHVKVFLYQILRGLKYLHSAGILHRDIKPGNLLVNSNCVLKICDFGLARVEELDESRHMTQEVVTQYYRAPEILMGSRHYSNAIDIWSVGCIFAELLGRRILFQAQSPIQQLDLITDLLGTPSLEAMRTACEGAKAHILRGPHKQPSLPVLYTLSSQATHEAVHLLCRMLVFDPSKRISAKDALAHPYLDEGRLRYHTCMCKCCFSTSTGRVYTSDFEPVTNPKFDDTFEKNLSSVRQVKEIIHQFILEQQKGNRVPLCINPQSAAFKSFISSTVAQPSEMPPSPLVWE

[6] = target: T3, Cytoplasmic tyrosine-protein kinase BMX (Homo sapiens) (UniProt P51813); test: BMX Invitrogen selectivity data (BI); details: Compound concentration 3.0 uM
T3 sequence (whole entry): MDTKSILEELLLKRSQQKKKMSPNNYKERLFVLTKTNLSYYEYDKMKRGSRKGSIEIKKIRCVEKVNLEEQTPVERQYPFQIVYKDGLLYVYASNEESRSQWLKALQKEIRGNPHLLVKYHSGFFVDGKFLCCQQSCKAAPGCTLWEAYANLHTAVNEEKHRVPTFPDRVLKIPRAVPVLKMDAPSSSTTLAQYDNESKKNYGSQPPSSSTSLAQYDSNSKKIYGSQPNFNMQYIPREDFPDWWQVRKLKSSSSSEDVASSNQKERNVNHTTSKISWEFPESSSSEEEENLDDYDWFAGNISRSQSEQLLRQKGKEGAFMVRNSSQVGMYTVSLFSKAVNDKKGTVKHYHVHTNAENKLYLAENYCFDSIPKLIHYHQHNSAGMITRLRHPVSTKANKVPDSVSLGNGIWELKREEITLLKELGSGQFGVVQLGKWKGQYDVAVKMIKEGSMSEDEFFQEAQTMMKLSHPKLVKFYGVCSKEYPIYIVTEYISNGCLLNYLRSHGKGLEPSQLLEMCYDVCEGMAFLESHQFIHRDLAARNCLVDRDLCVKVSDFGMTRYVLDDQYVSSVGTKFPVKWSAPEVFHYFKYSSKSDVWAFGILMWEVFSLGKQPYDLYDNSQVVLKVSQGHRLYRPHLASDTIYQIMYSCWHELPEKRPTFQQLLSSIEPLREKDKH

[7] = target: Type-1 angiotensin II receptor (Homo sapiens) (UniProt P30556); test: AT1/H Cerep selectivity data (BI); details: filed as antagonist, Compound concentration 20.0 uM
Sequence of Type-1 angiotensin II receptor (Homo sapiens) (P30556 whole entry): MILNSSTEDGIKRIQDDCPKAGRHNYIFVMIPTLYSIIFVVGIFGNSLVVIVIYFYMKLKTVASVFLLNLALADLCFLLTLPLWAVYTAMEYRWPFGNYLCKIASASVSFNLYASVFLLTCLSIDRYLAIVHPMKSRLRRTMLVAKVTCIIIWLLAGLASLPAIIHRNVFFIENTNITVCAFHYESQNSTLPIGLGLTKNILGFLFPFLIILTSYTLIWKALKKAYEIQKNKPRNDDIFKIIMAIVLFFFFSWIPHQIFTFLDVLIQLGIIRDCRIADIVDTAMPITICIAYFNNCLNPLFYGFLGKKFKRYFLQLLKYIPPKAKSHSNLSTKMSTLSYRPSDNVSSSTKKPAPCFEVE

[8] = target: Vascular endothelial growth factor receptor 2 (Homo sapiens) (UniProt P35968); test: KDR Invitrogen selectivity data (BI); details: Compound concentration 3.0 uM
[9] = target: Cyclin-dependent kinase 9 (Homo sapiens) (UniProt P50750); test: CDK9CYCLIN Invitrogen selectivity data (BI); details: Compound concentration 3.0 uM
Sequence of Cyclin-dependent kinase 9 (Homo sapiens) (P50750 whole entry): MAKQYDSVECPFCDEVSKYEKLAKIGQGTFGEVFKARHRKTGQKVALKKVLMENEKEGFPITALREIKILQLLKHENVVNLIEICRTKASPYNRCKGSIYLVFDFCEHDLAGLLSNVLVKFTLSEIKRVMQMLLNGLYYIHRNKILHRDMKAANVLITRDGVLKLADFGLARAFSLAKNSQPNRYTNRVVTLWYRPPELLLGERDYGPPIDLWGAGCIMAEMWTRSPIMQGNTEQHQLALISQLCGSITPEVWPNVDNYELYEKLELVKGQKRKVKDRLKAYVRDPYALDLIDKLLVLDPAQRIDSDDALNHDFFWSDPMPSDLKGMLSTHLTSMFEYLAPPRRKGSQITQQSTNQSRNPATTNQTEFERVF

[10] = target: Gastrin/cholecystokinin type B receptor (Homo sapiens) (UniProt P32239); test: CCKB/H Cerep selectivity data (BI); details: Compound concentration 20.0 uM
Sequence of Gastrin/cholecystokinin type B receptor (Homo sapiens) (P32239 whole entry): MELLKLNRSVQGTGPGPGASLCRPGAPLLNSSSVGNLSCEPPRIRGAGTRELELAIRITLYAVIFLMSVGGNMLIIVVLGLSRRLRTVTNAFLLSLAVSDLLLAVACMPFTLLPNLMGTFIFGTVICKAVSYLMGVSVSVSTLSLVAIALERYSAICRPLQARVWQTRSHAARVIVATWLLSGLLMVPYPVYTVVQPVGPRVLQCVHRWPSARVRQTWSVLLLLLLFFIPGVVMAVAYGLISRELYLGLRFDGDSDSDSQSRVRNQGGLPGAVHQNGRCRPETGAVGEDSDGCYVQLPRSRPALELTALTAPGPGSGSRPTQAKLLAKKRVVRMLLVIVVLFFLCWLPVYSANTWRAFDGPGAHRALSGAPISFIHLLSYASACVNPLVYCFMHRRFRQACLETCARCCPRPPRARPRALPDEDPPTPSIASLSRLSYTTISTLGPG

Measured: residual activity

Sequence of Protein kinase C theta type (Homo sapiens) (Q04759 whole entry, looked up): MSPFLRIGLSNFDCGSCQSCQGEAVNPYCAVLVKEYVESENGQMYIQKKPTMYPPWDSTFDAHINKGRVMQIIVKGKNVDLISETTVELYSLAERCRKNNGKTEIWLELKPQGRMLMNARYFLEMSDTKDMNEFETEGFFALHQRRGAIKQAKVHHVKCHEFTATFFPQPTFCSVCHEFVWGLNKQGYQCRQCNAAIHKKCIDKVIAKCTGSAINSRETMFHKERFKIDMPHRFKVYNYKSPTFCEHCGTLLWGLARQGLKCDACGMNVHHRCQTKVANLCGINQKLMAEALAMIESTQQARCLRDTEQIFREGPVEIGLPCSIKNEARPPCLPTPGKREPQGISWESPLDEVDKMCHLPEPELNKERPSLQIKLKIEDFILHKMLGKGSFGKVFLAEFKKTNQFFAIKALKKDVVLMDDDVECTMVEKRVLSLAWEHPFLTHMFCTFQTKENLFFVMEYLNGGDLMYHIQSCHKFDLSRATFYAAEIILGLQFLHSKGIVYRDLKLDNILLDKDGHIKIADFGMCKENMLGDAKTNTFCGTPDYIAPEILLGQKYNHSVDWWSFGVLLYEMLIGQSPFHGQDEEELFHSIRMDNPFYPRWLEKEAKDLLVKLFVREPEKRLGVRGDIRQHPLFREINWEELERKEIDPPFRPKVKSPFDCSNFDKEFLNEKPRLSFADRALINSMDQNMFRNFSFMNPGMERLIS

CN(C)C(=O)Cn1cc(-c2nc(C3(c4ccc(-c5cnc(N)nc5)cc4)CC3)no2)cn1 [BI 0153]
inactive: [1] 89%

CN(C)C(=O)Cn1cc(-c2nc([C@@](C)(c3ccc(-c4cnc(N)nc4)cc3)C3CC3)no2)cn1 [BI 665915]
inactive: [2] 94% | [3] 94% | [4] 99% | [5] 93% | [6] 95% | [7] 108% | [8] 90.5% | [9] 102% | [10] 119%
